According to patent US20070112043A1, “Acylated and non-acylated imidazo[2,1-b]-1,3,4,-thiadiazole-2-sulfonamides, and uses thereof” (priority 2003, published 2007):
≈ marks a conversion by molar mass, not a printed value. Where “and” joins values, the source holds several entries; their conditions need not be identical. Equal values may be shown once. Read-outs that look alike come from different tables or passages of the source.

Experiments:
[1] = Pharmacokinetics of primary sulfonamides and Na salts (oral, SC); type: in vivo; conditions: for Cmax: aqueous 0.5 wt/vol % CMC/0.5 wt/vol % Tween 80 (semi-)suspension
Method: HPCD formulations of compounds represented by formula I also display improved pharmacokinetic properties as compared to compounds dissolved in water.
When compound 2 is administered at 10 mg/kg SC excellent plasma drug concentrations are observed_(Cmax=2.0 μg/mL, C1/2=0.8 hrs). […]

[2] = tested on: 15N neuroblastoma cells; assay: Alamar blue viability assay, 15N neuroblastoma; type: cell-based; conditions: for IC50: cellular viability after 48 hours, compound dissolved in DMSO
Method: In order to investigate the anti-cancer potential of compounds represented by formula I-a, 15N neuroblastoma cells lines were treated with compound and assayed for cellular viability after 48 hours. The cellular viability of 15N neuroblastomas treated with compounds 1, 5, 6, 11, and 13 (dissolved in DMSO) are summarized in Table 5 (see Compound 152).
Compounds were tested for anti-cancer properties using the Alamar blue viability assay. Daoy human medulloblastoma cells of 15N neuroblastoma cells were plated at a density of 5000 cells per well of a 96 well plate and cultured in RPMI media supplemented with antibiotics and 5% fetal bovine serum. Cells in culture were incubated with compound for 48 hours after which time Alamar blue was added to the culture media. After 4 hours media was transferred to opaque white plates and fluorescence of transformed alamar blue was measured at excitation 535/emission 595).

[3] = Microsomal stability; type: in vitro ADME; conditions: 1 hr
[4] = tested on: Du145 (prostate); assay: Clonogenic assay Du145; type: cell-based; conditions: compound 24 hours, colonies counted after 7-10 days, read-out: ED50 (the source's name)
Method: (§1) In this paradigm, Du145 prostate, HCT116 colon, 15N Neuroblastoma, IMR32 Neuroblastoma, Daoy Medulloblastoma, and MDAMB231 breast cells are individually plated and allowed to proliferate for 48 hours. Compound is added to the culture and left on for 24 hours, at which time both compound and dead cells are washed off the plate. Fresh media is added and the cells are allowed to grow for an additional 7-10 days. The remaining healthy cells reproduce and formed localized colonies. These colonies are counted and EC50 values are determined relative to non-treated controls.
(§2) Du145 prostate, HCT116 colon, 15N Neuroblastoma, IMR32 Neuroblastoma, Daoy Medulloblastoma, and MDAMB231 breast cells were plated in 6 well plates and allowed to grow for 5 days._Cells were exposed to compound for 24 hours, the culture media was removed and replaced with fresh media. The cells were kept in cultured for 7-10 days after which colonies were counted and EC50 values were determined relative to non-treated controls.

[5] = tested on: HCT116 (colon); assay: Clonogenic assay HCT116; type: cell-based; conditions: compound 24 hours, colonies counted after 7-10 days, read-out: ED50 (the source's name)
Method: as §1, §2

[6] = tested on: 15 N (neuroblastoma); assay: Clonogenic assay 15N; type: cell-based; conditions: compound 24 hours, colonies counted after 7-10 days, read-out: ED50 (the source's name)
Method: as §1, §2

[7] = tested on: Daoy (medulloblastoma); assay: Clonogenic assay Daoy; type: cell-based, human; conditions: compound 24 hours, colonies counted after 7-10 days, read-out: ED50 (the source's name)
Method: as §1, §2

[8] = tested on: MDAMB231 (breast); assay: Clonogenic assay MDAMB231; type: cell-based; conditions: compound 24 hours, colonies counted after 7-10 days, read-out: ED50 (the source's name)
Method: as §1, §2

[9] = tested on: SCG neurons; conditions: cited from earlier work
[10] = tested on: Sprague Dawley rats; conditions: 10 mg/kg, cited from earlier work
[11] = tested on: RG neurons; conditions: intra-vitrial injection or SC 10 mg/kg, cited from earlier work
[12] = tested on: Male Sprague-Dawley rats; assay: Rat model of cisplatin induced neuropathy (SNCV); type: in vivo; conditions: for Cisplatin-induced loss in SNCV: 10-30 mg/kg, data not shown; for efficacy in cisplatin model of peripheral neuropathy: dose not stated
Method: (§3) Male Sprague-Dawley rats were administered 2.5 mg/kg cisplatin daily, for five consecutive days to achieve a final cumulative dose of 12.5 mg/kg. On the third day following the final cisplatin injection, animals received compounds SC at concentrations of (3, 10, and 30 mg/kg). Dosing continued Monday through Friday for three consecutive weeks. The effect of cisplatin on peripheral nerve function, and the ability of the compounds to attenuate the cisplatin effect were determined after three weeks of drug treatment by measuring the sensory nerve conduction velocity (SNCV) in the caudal nerve of the tail. Stimulating electrodes were used to deliver 2 mA pulses once per second for 1.5 min. The resulting compound sensory nerve action potentials were averaged, and the mean response onset time was determined from the averaged response. Two mean response times were determined, the second being 20 mm distal from the first. The difference in onset time between the two recordings was determined and used to calculate the conductance velocity.
Male Sprague-Dawley rats (weighing 200-225 g on arrival) were intraperitoneally administered 2.5 mg/kg cisplatin daily, for five consecutive days to achieve a final cumulative dose of 12.5 mg/kg. On the third day following the final cisplatin injection, animals received compounds SC at concentrations of (3, 10, and 30 mg/kg). Dosing continued Monday through Friday for three consecutive weeks.
as §3, with “The” for “Male Sprague-Dawley rats were administered 2.5 mg/kg cisplatin daily, for five consecutive days to achieve a final cumulative dose of 12.5 mg/kg. On the third day following the final cisplatin injection, animals received compounds SC at concentrations of (3, 10, and 30 mg/kg). Dosing continued Monday through Friday for three consecutive weeks. The”, “velocity. [formula]” for “velocity.”
The results of these experiments were combined, and ANOVA was performed, followed by a Fisher LSD test.

[13] = Stability of solutions/formulations; type: physicochemical; conditions: for Stability of HPCD formulation: 10 wt/vol % HPCD, room temperature
From the text: (§4) This is illustrated for compound 15 in Table 7.

[14] = tested on: sciatic nerve; conditions: 1 and 10 mg/kg; cited from earlier work
[15] = Solubility in water and formulations; conditions: for Solubility 10 wt/vol % HPCD water: Na salts in aqueous 10 wt/vol % HPCD
Method: Alternatively, the sodium salt can be prepared in situ by dissolving the free acid in phosphate buffered saline (PBS) that has been buffered to a pH of 7.4. The solubility and stability of these solutions can be improved by the use of an aqueous soluble co-solvent such as, but not limited to HPCD. This solubility can be further improved by the addition of surfactants such as PEG 400. In general, the free acid is suspended in 10 wt/vol % HPDC (10 g dissolved in 100 mL water) and treated with 0.5M PBS (pH 7.4) such that the volumes are in a ratio of 75:25.

[16] = tested on: IMR32 (neuroblastoma); assay: Clonogenic assay IMR32; type: cell-based; conditions: compound 24 hours, colonies counted after 7-10 days, read-out: ED50 (the source's name)
Method: as §1, §2

[17] = tested on: motor neurons found in layer V of the cortex; conditions: drug concentration 1 μM; malonate; P1 rat motor cortex slices; cited from earlier work
[18] = Pharmacokinetics and in vivo conversion of N-acylsulfonamides in rats (SC); parameters: species or system rat; conditions: subcutaneously, 10 mg/mL
Method: When administered to rats subcutaneously, compound 15 (10 mg/mL) is well distributed (Cmax=20 μg/mL in plasma). Conversion of compound 15 to 1 is observed with plasma levels of 1 reaching a Cmax of 0.5-1 μg/mL. Conversion of compound 16 to compound 1 is observed with plasma levels of 1 reaching a Cmax of 3 μg/mL Similar in vivo conversion is observed for select compounds listed in table 5 with whole blood drug concentrations being similar to that of their respective primary sulfonamide sodium salts, represented by formula I-a, administered at the same dose in aqueous 10 wt/vol % HPCD.

[19] = log P; type: physicochemical
[20] = pH of formulation; type: physicochemical; conditions: PBS/HPCD (25:75) solution
From the text: as §4

[21] = Conversion to primary sulfonamide in liver microsomes; type: in vitro ADME; conditions: after 60 minutes
Method: (§5) Compound 15 is converted to compound 1 in the presence of liver microsomes using the procedure described by Cresteil, T., et al. (Cresteil, T., et al. Am. Soc. Pharm. Exper. Therapeutics, 2002, 30, 438-445). Upwards of 50% conversion is observed after 60 minutes. When incubated with rat primary hepatocytes, the conversion of compounds 15, 37, and 44 to their respective primary sulfonamides, 1, 11, and 13, is observed.

[22] = Conversion to primary sulfonamide in rat primary hepatocytes; type: in vitro ADME; conditions: 90 minutes
Method: as §5

[23] = gavage 10 mg/kg, CMC/Tween 80 (semi-)suspension
[24] = Taxol induced cell death, read-out: Taxol SCG IC50
[25] = 250 μL 0.5 M PBS + 250 μL 10% HPCD + 500 μL 20% PEG 400

Structure (SMILES) | oral bioavailability [1, 23] | Cmax ([1]; gavage 10 mg/kg) [µg/mL] | IC50 [2] | Microsomal Stability (1 hr) [3] [%] | EC50 [4] [µM] | EC50 [5] [µM] | EC50 [6] [µM] | EC50 [7] [nM] | EC50 [8] [nM] | IC50 [9, 24] [µM] | Cisplatin-induced loss in SNCV [12] | efficacy in cisplatin model of peripheral neuropathy [12] | Stability of HPCD formulation [13] [days] | functional recovery (toe spread) [14] | Solubility 10 wt/vol % HPCD water [15] [mg/mL] | other results
NS(=O)(=O)c1nn2cc(-c3ccccc3)nc2s1 [Compound 1] | moderate | 0.2 | ~20 µM and 20 µM | 90 | 8 | 12 | 7 | > 5000 | > 5000 | 7 | – | – | – | – | – | IC50 ([9]; anti-NGF induced cell death, read-out: anit-NGF SCG IC50): 22 µM; IC50 ([9]; cisplatin induced cell death, read-out: cisplatin SCG IC50): 5 µM; IC50 ([9]; vincristine induced cell death, read-out: vincristine SCG IC50): 10 µM; weight gain ([10]; Taxol 9 mg/kg twice weekly for 3 weeks): normal weight gain; loss in foot pad contact ([10]; Taxol alone 46% loss): 23%; histology of RG layer [11]: healthy RG layers; electro-retinogram (ERG) ([11]; versus vehicle): significant improvements
[NH-]S(=O)(=O)c1nn2cc(-c3ccccc3)nc2s1.[Na+] [Compound 2] | improved | 0.56 | – | – | – | – | – | – | – | – | protective | efficacy | >14 | improved recovery | 20 | C1/2 ([1]; SC 10 mg/kg): 0.8 h; plasma Cmax ([1]; SC 10 mg/kg, 10 wt/vol % HPCD solution): 2.0 µg/mL; C1/2 [1, 23]: 0.9 h; Solubility Water ([15]; Na salts in water): 10 mg/mL
COc1cccc(-c2ccc(-c3cn4nc(S([NH-])(=O)=O)sc4n3)cc2)c1.[Na+] [Compound 10] | – | – | – | – | – | – | – | – | – | – | protective | efficacy | >14 | improved recovery | 10 | –
NS(=O)(=O)c1nn2cc(-c3ccc(-c4cccc(C(F)(F)F)c4)cc3)nc2s1 [Compound 11] | – | – | 2 µM | 60 | – | 1.5 | 0.75 | 1000 | 1000 | 2 | – | – | – | – | – | fold increase in activity over compound 1 ([2]; 15N neuroblastoma): 10 fold
NS(=O)(=O)c1nn2cc(-c3ccc(Oc4ccc(Cl)cc4)cc3)nc2s1 [Compound 13] | – | – | 10 µM | 85 | 8 | – | – | – | – | 3 | – | – | – | – | – | EC50 [16]: 750 nM; protection of SMI-32 labeled motor neurons [17]: > 80%
CC(=O)NS(=O)(=O)c1nn2cc(-c3ccccc3)nc2s1 [Compound 15] | – | – | – | – | – | – | – | – | – | – | – | – | – | – | – | Stability [13, 25]: >4 weeks; Stability ([13]; 1000 μL 0.5 M PBS): 1 to 2 days; Stability in 10 wt/vol HPCD ([13]; PBS/HPCD (25:75) solution): >4 weeks; Cmax in plasma [18]: 20 µg/mL; log P [19]: 2.6; pH [20]: 7.4; conversion to compound 1 [21]: > 50%; conversion rate to primary sulfonamide [22]: 6%; dissolution ([15]; 25 mg in 1 mL PEG 400/ethanol (50:50) + ethanolamine (20 μL)): clear solution; clear solution concentration ([15]; 10 wt/vol % HPCD + 1 equiv of ethanolamine, dimethylaminoethanol or 4-aminopyridine): 5 to 10 mg/mL; solubility [15, 25]: 25 mg/mL; solubility ([15]; 250 μL 0.5 M PBS + 750 μL 10% HPCD): 10 mg/mL; Solubility in 10 wt/vol HPCD ([15]; PBS/HPCD (25:75) solution): 10 mg/mL (≈ 31 mM)
